Experimental data taken from patent US7943793B2, “Optically active organic acidate-bridged dinuclear platinum(II) complex” (Osaka University, priority 2007, dated 2011).

Legend:
Type in all cases: cell-based
colon cancer cell HT-29 = test: Cancer growth inhibitory activity, colon cancer cell HT-29; conditions: for Cancer growth inhibitory activity (average log GI50): colon cancer cell HT-29; for cancer growth inhibitory activity relative to oxaliplatin: colon cancer cells, stronger than oxaliplatin
lung cancer cell DMS273 = test: Cancer growth inhibitory activity, lung cancer cell DMS273; conditions: for Cancer growth inhibitory activity (average log GI50): lung cancer cell DMS273; for cancer growth inhibitory activity relative to oxaliplatin: lung cancer cells, higher than oxaliplatin
[1] = test system: gastric cancer cell MKN-7; test: Cancer growth inhibitory activity, gastric cancer cell MKN-7; conditions: for Cancer growth inhibitory activity (average log GI50): gastric cancer cell MKN-7
[2] = test system: renal cancer cell RXF631L; test: Cancer growth inhibitory activity, renal cancer cell RXF631L; conditions: for Cancer growth inhibitory activity (average log GI50): renal cancer cell RXF631L
39 kinds of cancer cells = test: In vitro cancer growth inhibitory activity, sulforhodamine B, panel of 39 cancer cell lines; conditions: average over 39 kinds of cancer cells, 2 days culture with sample
Method: The in vitro cancer growth inhibitory activity was assessed according to the method described in Jpn J Cancer Chemother, 24, 129 (1997) and Cancer Chemothr. Pharmacol., 52 Suppl 1, S74-79 (2003). Namely, a total of 39 different kinds of cancer cells at logarithmic growth phase were separately seeded into wells of 96 well plates, and incubated at 37° C. for 1 day. The cancer cells used were 5 kinds of breast cancer cells (HBC-4, BSY-1, HBC-5, MCF-7, MDA-MB-231), 6 kinds of glioma cancer cells (U251, SF-268, SF-295, SF-539, SNB-75, SNB-78), 5 kinds of colon cancer cells (HCC2998, KM-12, HT-29, HCT-15, HCT-116), 7 kinds of lung cancer cells (NCI-H23, NCL-H226, NCL-H522, NCL-H460, A549, DMS273, DMS114), 1 kind of melanoma cell (LOX-IMVI), 5 kinds of ovarian cancer cells (OVCAR-3, OVCAR-4, OVCAR-5, OVCAR-8, SK-OV-3), 2 kinds of renal cancer cells (RXF-631L, ACHN), 6 kinds of gastric cancer cells (St-4, MKN1, MKN7, MKN28, MKN45, MKN74), and 2 kinds of prostate cancer cells (DU-145, PC-3). Each sample solution was added to the wells on the following day, and culture was continued at 37° C. for another 2 days. Then, the degree of cell growth was determined by the colorimetric measurement using sulforhodamine B. The cancer growth inhibitory activity was assessed based on the average log GI50 (GI50 indicates the concentration required to inhibit 50% of cell growth) against 39 kinds of cancer cells.

Cancer growth inhibitory activity (average log GI50) (colon cancer cell HT-29) | Cancer growth inhibitory activity (average log GI50) (lung cancer cell DMS273) | Cancer growth inhibitory activity (average log GI50) [1] | Cancer growth inhibitory activity (average log GI50) [2] | Cancer growth inhibitory activity (average log GI50) (39 kinds of cancer cells) | Compound | cancer growth inhibitory activity relative to oxaliplatin (colon cancer cell HT-29) | cancer growth inhibitory activity relative to oxaliplatin (lung cancer cell DMS273) | cancer growth inhibitory activity relative to oxaliplatin ([1]; gastric cancer cells, stronger than oxaliplatin) | cancer growth inhibitory activity relative to oxaliplatin ([2]; renal cancer cells, stronger than oxaliplatin)
−5.96 | −7.46 | −6.02 | −6.03 |  | N[C@@H]1CCCC[C@H]1N.N[C@@H]1CCCC[C@H]1N.O.O.O.O.O=C([O-])[C@@H](O)[C@H](O)C(=O)[O-].O=[N+]([O-])[O-].[Pt+2].[Pt+2] (relative stereo) [[{Pt(R,R-dach)}2(μ-D-tartH)]NO3•4H2O, D-tartrate-bridged dinuclear 1R,2R-1,2-trans-cyclohexanediamine platinum(II) complex nitrate] | about 10 times | about 20 times | about 10 times | about 100 times
−7.00 | −7.31 | −4.98 | −4.92 | −5.99 | L-tartrate-bridged dinuclear 1R,2R-1,2-trans-cyclohexanediamine platinum(II) complex nitrate [[{Pt(R,R-dach)}2(μ-L-tartH)]NO3•4H2O] | about 100 times | about 20 times |  | 
 |  |  |  | −5.36 | L-tartrate-bridged dinuclear 1S,2S-1,2-trans-cyclohexanediamine platinum(II) complex nitrate [[{Pt(S,S-dach)}2(μ-L-tartH)]NO3•4H2O] |  |  |  | 

Compound | Cancer growth inhibitory activity (average log GI50) (colon cancer cell HT-29) | Cancer growth inhibitory activity (average log GI50) (lung cancer cell DMS273) | Cancer growth inhibitory activity (average log GI50) [1] | Cancer growth inhibitory activity (average log GI50) [2] | Cancer growth inhibitory activity (average log GI50) (39 kinds of cancer cells) | cancer growth inhibitory activity relative to oxaliplatin (colon cancer cell HT-29) | cancer growth inhibitory activity relative to oxaliplatin (lung cancer cell DMS273) | cancer growth inhibitory activity relative to oxaliplatin ([1]; gastric cancer cells, stronger than oxaliplatin) | cancer growth inhibitory activity relative to oxaliplatin ([2]; renal cancer cells, stronger than oxaliplatin)
O=C1[O][Pt-2]2([NH2+]C3CCCC[C@H]3[NH2+]2)[O]C1=O (stereo partly drawn) [Oxaliplatin, oxalato(1R,2R-1,2-cyclohexanediamine)platinum(II), reference compound] | −4.91 | −6.06 | −4.68 | −4.13 | −5.03 |  |  |  | 
